Measurements as given in patent publication US20050203013A1, “Methods for inhibiting vascular permeability” (priority 2002, published 2005).

Key:
ear swelling = test: Delayed-type hypersensitivity reaction elicited by oxazolone; format: in vivo, C57B1/6J mice
Procedure: Delayed-type hypersensitivity (DTH) reactions were induced in the skin of 8-week-old C57B1/6J male mice (n=5) as previously described (Dvorak et al., 1984). In order to induce an immune response to oxazolone, mice were first sensitized by topical application of 2% oxazolone solution in vehicle, acetone: olive oil (4:1 vol/vol), to the shaved abdomen (50 μl) and to each paw (5 μl). Mice were treated with TNP-470 (30 mg/kg s.c.) for three days prior to the second challenge with oxazolone. Five days after sensitization, the right ears were challenged by topical application of 10 μl of a 1% oxazolone solution; the left ears were treated with vehicle alone. Ear thickness was then measured daily for up to 7 days as a measure of inflammation intensity (Gad et al., 1986). Statistical analysis was performed using the unpaired Student t test. Some mice from each experimental group were euthanized 24 hours after oxazolone challenge (n=5 per group). One half of each ear was fixed in 10% formalin and was processed, embedded in paraffin and stained for H & E. The other half was embedded in OCT compound (Sakura Finetek, Torrance, Calif.) and snap-frozen in liquid nitrogen. Immunohistochemical staining was performed on 5 μm cryostat sections using a Vecstatin avidin-biotin detection system (Vector Labs, Burlingame, Calif.) with rat monoclonal antibodies against mouse CD31 (dilution 1:250, Pharmingen, San Diego, Calif.) according to the manufacturers' instructions.

skin vessel permeability = test: Miles vascular permeability assay (Example 3); format: in vivo, SCID mice
Procedure: SCID mice were injected subcutaneously (s.c.) with TNP-470 or HPMA copolymer-TNP-470 (30 mg/Kg TNP-equiv.) for three days, with Y27632 (50 nM s.c.) for 11 days, with angiostatin (200 mg/kg/day s.c.) for five days, or with saline (250 μl s.c.) for 5 days (n=12) prior to performing the Miles assay ([…] et al., 1996; Miles and Miles, 1952; Streit et al., 2000). Briefly, Evan's blue dye (100 μl of a 1% solution in 0.9% NaCl) was injected intravenously (i.v.) into mice. After 10 minutes, 50 μl of human VEGF165 (1 ng/μl), PAF (100 μM), CNF-1 (100 ng), histamine (1.2 μg/ml) or PBS (50 ul) were injected intradermally into the pre-shaved back skin. After 20 minutes, the animals were euthanized and an area of skin that included the blue spot resulting from leakage of the dye was removed. Evan's blue dye was extracted from the skin by incubation with formamide for 5 days at room temperature, and the absorbance of extracted dye was measured at 620 nm using a spectrophotometer. The unpaired Student t test was used for statistical analysis.

[1] = tested on: Bovine adrenal capillary endothelial cells; test: BCE proliferation assay; format: cell-based; conditions: challenged with bFGF, 72 h
Procedure: Bovine adrenal capillary endothelial cells were seeded on gelatinized plates (15,000/well). Following 24 h incubation, cells were challenged with free and conjugated TNP-470, and bFGF (1 ng/ml) was added to the medium. Cells were counted after 72 h.

HMVEC-d cells = test: Cell proliferation assay, HMVEC-d; format: cell-based, Human
Procedure: HMVEC-d cells were trypsinized (0.05% trypsin) and resuspended (15,000 cells/ml) in EBM-2 supplemented with 5% fetal bovine serum (FBS), plated onto gelatinized 24-well culture plates (0.5 ml/well), and incubated for 24 hours (37° C., 5% CO2). The media was replaced with 0.5 ml of complete media (serum and growth factors; EGM-2 MV), and test substances were applied. Cells were challenged with free or conjugated TNP-470 (0.01 pg/ml to 1 mg/ml TNP-470-equivalent concentration). Control cells were grown with or without growth factors. U87 glioblastoma cells were washed with PBS, trypsinized and resuspended (5,000 cells/ml) in DMEM supplemented with 10% FBS, plated onto 24-well culture plates (0.5 ml/well), and incubated for 24 hours (37° C., 5% CO2). The media was replaced with 0.5 ml of DMEM and 10% FBS, and the test sample applied. Cells were challenged with free or conjugated TNP-470 (0.01 pg/ml to 1 mg/ml TNP-470-equivalent concentration). Control cells were grown with or without 10% FBS. Both cell types were incubated for 72 hours, followed by trypsinization, resuspension in Hematall (Fisher Scientific, Pittsburgh, Pa.), and counted in a Coulter counter.

Water solubility = format: physicochemical
Procedure: To evaluate the biological activity of HPMA-TNP-470, the following assays were performed: […]

MAPK = test: Phosphorylation of MAPK; format: cell-based, Human; conditions: HMVEC-d
Procedure: Serum-starved HMVEC-d were treated with 5 ng/ml TNP-470 at 37° C. for 2 hours, and then stimulated with 10 ng/ml of VEGF for 5 minutes. Stimulation was stopped by adding cold PBS. Cells were lysed with cold radioimmune precipitation buffer. Cellular extracts (20 μg) were immunoblotted with an antibody against phosphorylated MAPK (p-MAPK) (Cell Signaling Technology Inc.). The blot was stripped and reprobed with an antibody against MAPK to confirm equal protein loading.

Ca2+ influx in HMVEC-d = test: Intracellular Ca2+ release; format: cell-based, Human
Procedure: For detaching cells, serum-starved HMVEC-d were incubated with 4 ml of collagenase solution (0.2 mg/ml collagenase, 0.2 mg/ml soybean trypsin inhibitor, 1 mg/ml BSA, and 2 mM EDTA in PBS) at 37° C. for 30 minutes. Cell pellets were washed with 2 ml of Ca^2+ buffer (5 mM KCl, 140 mM NaCl, 1 mM CaCl2, 1 mM MgCl2, 5.6 mM glucose, 0.1% BSA, 0.25 mM sulfinpyrazone, and 10 mM HEPEs, pH 7.5) and then resuspended in 2 ml of the same buffer containing 5 ng/ml TNP-470. The cells were incubated at 37° C. for 2 hours in suspension. During the last 30 minutes of incubation, 1 μg/ml Fura-2-AM Fura 2-AM (acetoxymethyl ester derivative of Fura 2) and 0.02% pluronic F-127 were added to the suspension. Cells (106) were collected and resuspended in 2 ml Ca^2+ buffer for VPF/VEGF (10 ng/ml), PAF (20 nM), or histamine ([…]) stimulation. Intracellular Ca^2+ concentrations were measured with the DeltaScan Illumination System (Photon Technology International Inc.) using Felix software, while rocking the tubes.

CO[C@@H]1[C@H](OC(=O)NC(=O)CCl)CC[C@]2(CO2)[C@H]1[C@@]1(C)O[C@@H]1CC=C(C)C [TNP-470]
inflammatory response (histology) (ear swelling; 24 hours after challenge): dramatically reduced
ear swelling and erythema vs control mice (ear swelling; 24 hours after oxazolone challenge, P<0.01): significantly reduced ear swelling and erythema
difference in ear swelling vs control mice (ear swelling; 48 hours, P<0.01): persisted
difference in ear swelling vs control mice (ear swelling; 4 days): differences had disappeared
CNF-1-induced Evan's blue-albumin extravasation (skin vessel permeability; CNF-1 intradermal): inhibited
decrease of PAF-induced permeability (skin vessel permeability; PAF intradermal): 75%
low-level permeability induced by intradermal injections of PBS (skin vessel permeability; PBS intradermal): blocked
inhibition of Evan's blue dye extravasation from VPF/VEGF injection sites (skin vessel permeability; VPF/VEGF intradermal): ~70%
decrease of histamine-induced permeability (skin vessel permeability; histamine intradermal): 80%
BCE cell growth [1]: inhibited
endothelial cell vs tumor cell inhibitory concentration difference (HMVEC-d cells; HMVEC-d vs U87): 4 orders of magnitude
concentration inhibiting growth factor-induced proliferation without cytotoxicity (HMVEC-d cells; HMVEC-d, 72 hours): ≥ 1 pg/mL
cytotoxic concentration (HMVEC-d cells; HMVEC-d, 72 hours): higher than 1 μg/ml
water solubility (Water solubility): not water-soluble
VPF/VEGF-induced MAPK phosphorylation (MAPK): inhibited
Ca2+ influx induced by PAF (Ca2+ influx in HMVEC-d): decreased
Ca2+ influx induced by VPF/VEGF (Ca2+ influx in HMVEC-d): decreased
Ca2+ influx induced by histamine (Ca2+ influx in HMVEC-d): decreased
